Where “and” joins values, the source holds several entries; their conditions need not be identical. Identical values can stand only once.
What was measured:
Assay type in all cases: physicochemical
[1] = Mean particle size (D50) by laser light diffraction
Method: The term ‘mean particle size’ as used herein means the particle size distribution of 50% of the population of the particles is less than the specified value. The particle size was measured using laser light diffraction method of particle size analysis.

[2] = In vitro cascade impactor test (fine particle fraction/dose, MMAD, GSD, deposition), USP <601>; conditions: applicant's patented device
Description: A cascade impactor is a multi-stage sampling device for determining the size distribution of a particulate aerosol. The aerosol flows into the impactor whereupon it impinges upon a sequence of solids discs. Each disc (which represents a ‘stage’) is contained within a flow chamber and each chamber is connected in a vertical arrangement to the previous and next chamber in the sequence. Larger particles impact on the first disc and are captured. The sampling velocity increases for each successive chamber/disc so that successively smaller particles are collected. The final stage is typically a fine filter septum. Up to 10 stages are often used which divides the size distribution into an equivalent number of portions. The present invention may use eight Stage Sampler which meets the guidelines of the various world pharmacopoeias (e.g., United States Pharmacopoeia Chapter 601 “USP <601>”) to characterize metered-dose (MDI) and dry powder-dose inhalers (DPI), nebulizers, nasal sprays and other pulmonary drugs or a Next generation impactor (NGI) by Anderson. The testing of inhalation drugs goes hand and hand with cascade impactors, the size ranges collected are considered inhalable (generally <10 μm), just as the inhalation drugs should consistently arrive within the respiratory system into their target regions, the various stages represent the cut-off sizes when deposition may occur within the lungs.
In order to evaluate the effect of the dry powder inhalation composition itself, the composition was delivered via two different inhalation devices namely, a marketed inhalation device, namely, such as for example Rotahaler® and the applicant's own patented device. The % fine particle fraction and mass mean aerodynamic diameter was determined by testing in vitro in cascade impactor. The therapeutic efficacy of the composition of the present invention in terms of fine particle fraction was determined by a cascade impaction method official in the United States Pharmacopoeia, chapter <601>.
The conditioned micronized salmeterol xinafoate having mean particle size of […] and a tapped density in the range of 0.20 g·cm^−3 to 0.45 g·cm^−3 was tested for fine particle fraction, mass mean aerodynamic diameter in a cascade impactor. The composition was delivered using the applicant's patented device as described in the description. The results of the in-vitro testing are provided below in Table 2:
The composition of dry powder inhalation was subjected to fine particle dose determination. This was determined according to the procedure given in USP chapter <601>. The fine particle fraction was measured in terms of deposition at various stages as per the pharmacopoeial method. […]

[3] = Polymorphic purity by differential scanning calorimetry (DSC); conditions: micronized, conditioned 80 hr at 40° C., 80 bar, CO2
Tapped density = assay: Tapped density
Description: The term ‘tapped density’ as used herein means that density attained after mechanically tapping a receptacle containing the powder sample.

[4] = Polymorphic purity by differential scanning calorimetry (DSC)
Method: The phrase ‘substantially free of polymorph II’ means the micronized salmeterol xinafoate having not more than 5%, preferably not more than 3%, most preferably not more than 1% of polymorph II. The polymorphic purity of the salmeterol xinafoate can be determined by any known analytical method. According to the present invention, the polymorphic purity is determined by differential scanning calorimeter (DSC). The melting points of polymorph I and polymorph II are distinct and this method can determine the presence of two.
In one embodiment, the salmeterol xinafoate was obtained by micronizing salmeterol xinafoate by milling in a jet mill with grinding parameters are as follows: grinding pressure: 1-5 bars, feed pressure: 2-10 bars, feed rate of 0.1-10 g/min, followed by subjecting the micronized material to a temperature of about 50° C. to 90° C., wherein the conditioning cycle is carried out for a time period o about 1 hour to 120 hours, preferably, 1 to 50 hours, most preferably, 20 hrs to 40 hrs. The polymorphic purity of the resultant salmeterol xinafoate so obtained was determined by recording the differential scanning calorimetry (See FIGS. 3-5).
The results of the polymorphic purity were determined by differential scanning calorimeter and are tabulated below

[5] = batch D50 4.02, tapped density 0.25
[6] = batch D50 5.99, tapped density 0.43
[7] = micronized, before conditioning at 40° C./80 bar CO2
[8] = micronized, conditioned 40 hr at 85° C., air, no pressure
[9] = micronized, not conditioned (FIG. 3)
[10] = un-micronized salmeterol xinafoate (FIG. 2)

**Q.** Which results are given for `OCc1cc(C(O)CNCCCCCCOCCCCc2ccccc2)ccc1O` (stereo not drawn) [salmeterol xinafoate]?
**A.** Mean particle size D50 ([1]; conditioned micronized batch with tapped density 0.25): about 4.02 μms; Mean particle size D50 ([1]; conditioned micronized batch with tapped density 0.25, listed as salmeterol xinofoate): 4.02 μms; Mean particle size D50 ([1]; conditioned micronized batch with tapped density 0.43): about 6 μms; Mean particle size D50 ([1]; conditioned micronized batch with tapped density 0.43, listed as salmeterol xinofoate): 5.99 μms; % FPF Mean [2, 5]: 41.115%; GSD Mean [2, 5]: 1.747; % FPF Mean [2, 6]: 20.91%; GSD Mean [2, 6]: 1.734; % Salmeterol xinafoate Polymorph form I [3]: 85.95%; % Salmeterol xinafoate Polymorph form II [3]: 9.09%; Tapped density (Tapped density; conditioned micronized batch with D50 4.02): 0.25 g/mL; Tapped density (Tapped density; conditioned micronized batch with D50 5.99): 0.43 g/mL; % polymorph I [4, 7]: 44.18%; % polymorph II [4, 7]: 34.34%; % Salmeterol xinafoate Polymorph form I ([4]; micronized, conditioned 24 hr at 85° C., air, no pressure): 92.78%; % Salmeterol xinafoate Polymorph form I [4, 8]: 96.40%; % Salmeterol xinafoate Polymorph form II [4, 8]: 3.66% and 3.60%; % polymorph I [4, 9]: 69.20%; % polymorph II [4, 9]: 30.80%; % polymorph form I [4, 10]: 88.8%; % polymorph form II [4, 10]: 11.20%

— patent US20130064870A1, “DRY POWDER INHALATION COMPOSITION” (SUN PHARMA ADVANCED RESEARCH COMPANY LIMITED, priority 2010, published 2013)
